Experimental data: patent EP4559923A1, “ANTIHISTAMINE COMPOUND, AND PREPARATION METHOD THEREFOR AND USE THEREOF” (HC Synthetic Pharmaceutical Co., Ltd., priority 2022, dated 2024)

Tests used:
[1] = tested on: histamine; assay: Muscle tone of isolated ileal smooth muscle of guinea pigs contracted with histamine; settings: Table 4, x±s, n = 8; for Antispasmodic percentage (%): relative to tone after adding histamine, 3 min; for Smooth muscle tone (g) After addition of histamine: after 0.05 mL of histamine, before compound; for Smooth muscle tone (g) Before administration: before histamine and compound
Method: (§1) The guinea pig was knocked unconscious with a wooden stick, and the abdomen was immediately dissected to separate the ileum about 15 cm in length. The contents of the intestinal segment were flushed with Tyrode's solution and placed in Tyrode's solution at a constant temperature of 37°C for later use, and oxygen was supplied simultaneously. The experimental intestinal tract (1 cm in length) was cut and placed into 20 ml of Tyrode's solution at a constant temperature of 37°C with a continuous oxygen supply. One end of the intestine was fixed on the ventilation hook and the other end was connected to the muscle tone transducer and led to the computer interface. The muscle tone value of the ileal smooth muscle was recorded with a BL system. The experiment was carried out after the intestinal segment contraction became stable.
(§2) After the ileal peristalsis curve stabilized, the tone values before adding the compound were recorded, and then 0.05 mL of histamine was added. […] The operation was repeated 8 times. The antispasmodic percentage was calculated using the following equation. Antispasmodic percentage; = (Tone value after adding histamine−Tone value after adding subject compound)/(Tone value after adding histamine) × 100% [formula]

[2] = as above; settings: Table 4; 3 minutes after adding 0.05 mL compound at maximum histamine contraction; x±s, n = 8
Method: as §1, §2

[3] = tested on: isolated ileal smooth muscle; assay: Muscle tone of isolated ileal smooth muscle of guinea pigs, compound alone; settings: Table 3, no histamine, X±s, n = 8; for Smooth muscle tone (g) After administration: 5 minutes after adding the drug; for Antispasmodic percentage (%): relative to tone before adding compound, 5 min; for Smooth muscle tone (g) Before administration: before adding the drug
Method: as §1
After the ileum contraction curve stabilized, the tone values before adding the drug were recorded, then the drug or DMSO was added, and the average tone value of the ileum contraction curve at that point was recorded 5 minutes later. The operation was repeated 8 times. The antispasmodic percentage was calculated according to the following formula. Antispasmodic percentage =; (Tone value before adding subject compound−Tone value after adding subject compound)/(Tone value before adding subject compound) × 100% [formula]

[4] = tested on: histamine-induced asthma; assay: Antiasthmatic effect on histamine-induced asthma in guinea pigs (latency period); assay type: in vivo; settings: X±s, n = 5; for Post-administration latency period: 1 mg/kg oral gavage, sixty minutes after administration, histamine hydrochloride spray, no asthma within 8 minutes counted as 8 minutes; for Pre-administration latency period: baseline before dosing, histamine hydrochloride spray 0.8 mg/mL for 40 seconds
Method: The guinea pigs were placed in a polymethyl methacrylate bell jar and a histamine hydrochloride solution was sprayed ultrasonically (0.8 mg/mL) for 40 seconds. The time point at which the guinea pigs developed asthma was recorded. The time of convulsion and fall was taken as the latency period. Guinea pigs with a latency period exceeding 180 seconds were not selected. […] The guinea pigs were administered by oral gavage at a dose of 2 mL/kg·bw. Sixty minutes after the administration, the guinea pigs were placed in bell jars, and histamine hydrochloride solution was sprayed under the same conditions as in the previous selection. The latency period for the onset of asthma was recorded. […] The results were processed statistically.

SMILES | Antispasmodic percentage (%) [1] [%] | Smooth muscle tone (g) After administration [2] [g] | Smooth muscle tone (g) After administration [3] [g] | Antispasmodic percentage (%) [3] [%] | Post-administration latency period [4] [s] | Smooth muscle tone (g) After addition of histamine [1] [g] | Smooth muscle tone (g) Before administration [1] [g] | Smooth muscle tone (g) Before administration [3] [g] | Pre-administration latency period [4] [s]
O=P(O)(O)OCOCCCCCN1CCC(=C2c3ccc(Cl)cc3CCc3cccnc32)CC1 [Compound IV-11] | 65.89±19.39 | 1.18 ± 0.28 | 1.18 ± 0.31 | 32.57±19.31 | 364.85 ± 51.11 |  |  |  | 
O=P(O)(O)OCOCCCCCN1CCC(=C2c3ccc(Cl)cc3CCc3cccnc32)CC1 [Compound III-19] | 65.59±18.97 | 1.18 ± 0.28 | 1.15 ± 0.24 | 33.13±19.91 | 355.71 ± 50.33 | 3.43 ± 0.94 | 1.82 ± 0.21 | 1.72 ± 0.25 | 98.46 ± 52.04
O=P(O)(O)OCN1CCC(=C2c3ccc(Cl)cc3CCc3cccnc32)CC1 [Compound IV-1] | 65.12±19.01 | 1.20 ± 0.23 | 1.18 ± 0.21 | 30.99±19.20 | 362.39 ± 48.40 |  |  |  | 
O=P(O)(O)OCCCCN1CCC(=C2c3ccc(Br)cc3CCc3cccnc32)CC1 [Compound III-12] | 64.92±17.49 | 1.21 ± 0.23 | 1.25 ± 0.21 | 28.16±21.10 | 359.80 ± 51.47 | 3.45 ± 0.94 | 1.82 ± 0.21 | 1.74 ± 0.23 | 99.91 ± 49.45
O=P(O)(O)OCN1CCC(=C2c3ccc(Cl)cc3CCc3cccnc32)CC1 [Compound III-1] | 67.44±15.23 | 1.12 ± 0.25 | 1.10 ± 0.22 | 36.78±18.11 | 388.39 ± 53.23 | 3.44 ± 1.10 | 1.81 ± 0.19 | 1.74 ± 0.19 | 99.34 ± 49.57
O=P(O)(O)OCCCCN1CCC(=C2c3ccc(F)cc3CCc3cccnc32)CC1 [Compound III-11] | 66.37±17.33 | 1.16 ± 0.20 | 1.17 ± 0.22 |  | 373.33 ± 50.81 |  |  |  | 
O=P(O)(O)OCCN1CCC(=C2c3ccc(Cl)cc3CCc3cccnc32)CC1 [Compound III-4] | 65.23±19.91 | 1.21 ± 0.20 | 1.17 ± 0.21 | 31.17±20.11 | 366.40 ± 50.23 | 3.48 ± 0.98 | 1.75 ± 0.18 | 1.70 ± 0.20 | 97.99 ± 50.18
O=P(O)(O)OCN1CCC(=C2c3ccc(F)cc3CCc3cccnc32)CC1 [Compound III-2] | 67.65±17.99 | 1.10 ± 0.19 | 1.15 ± 0.20 | 33.14±15.19 | 367.77 ± 50.21 | 3.40 ± 0.99 | 1.75 ± 0.16 | 1.72 ± 0.23 | 98.81 ± 50.32
O=P(O)(O)OCCCN1CCC(=C2c3ccc(F)cc3CCc3cccnc32)CC1 [Compound III-8] | 66.47±18.83 | 1.16 ± 0.25 | 1.14 ± 0.23 | 33.72±19.01 |  |  |  |  | 
O=P(O)(O)OCOCCN1CCC(=C2c3ccc(Cl)cc3CCc3cccnc32)CC1 [Compound III-16] | 65.49±19.23 | 1.18 ± 0.25 | 1.15 ± 0.24 | 33.14±18.54 | 363.23 ± 50.55 | 3.42 ± 0.92 | 1.83 ± 0.21 | 1.72 ± 0.20 | 95.92 ± 50.22
O=P(O)(O)OCCN1CCC(=C2c3ccc(Br)cc3CCc3cccnc32)CC1 [Compound III-6] | 65.42±17.83 | 1.20 ± 0.20 | 1.16 ± 0.27 | 32.56±17.27 | 373.29 ± 50.22 | 3.47 ± 0.90 | 1.83 ± 0.18 | 1.72 ± 0.20 | 95.26 ± 48.88
O=P(O)(O)OCN1CCC(=C2c3ccc(Br)cc3CCc3cccnc32)CC1 [Compound III-3] | 66.28±16.30 |  |  | 29.82±18.20 |  | 3.50 ± 1.19 |  |  | 
O=P(O)(O)OCOCCCCN1CCC(=C2c3ccc(Cl)cc3CCc3cccnc32)CC1 [Compound IV-10] | 65.31±19.57 | 1.20 ± 0.27 | 1.19 ± 0.24 | 30.41±20.04 | 365.28 ± 52.09 |  |  |  | 
